This is an account of results in patent US9168259B2 (GRÜNENTHAL GMBH, priority 2010, dated 2015).

pEC50: −log10 of the molar value.

This assay has as its target T1, KCNQ2/3 channels (Homo sapiens, UniProt O43525+O43526).
T1 construct: expressed in transfected cells
Kind of assay: Fluorescence assay using a voltage sensitive dye (fluorimetry). The class given is cell-based. The note with it: CHO-K1 cells expressing KCNQ2/3; for Emax: CHO-K1, plateau effect relative to saturated retigabine (50 μM) = 100%, negative values = antagonistic, read-out: Fluorimetry % efficacy (retigabine = 100%); for pEC50: IC50 where % efficacy is negative, read-out: Fluorimetry EC50/IC50.

T1 sequence (O43526 whole entry): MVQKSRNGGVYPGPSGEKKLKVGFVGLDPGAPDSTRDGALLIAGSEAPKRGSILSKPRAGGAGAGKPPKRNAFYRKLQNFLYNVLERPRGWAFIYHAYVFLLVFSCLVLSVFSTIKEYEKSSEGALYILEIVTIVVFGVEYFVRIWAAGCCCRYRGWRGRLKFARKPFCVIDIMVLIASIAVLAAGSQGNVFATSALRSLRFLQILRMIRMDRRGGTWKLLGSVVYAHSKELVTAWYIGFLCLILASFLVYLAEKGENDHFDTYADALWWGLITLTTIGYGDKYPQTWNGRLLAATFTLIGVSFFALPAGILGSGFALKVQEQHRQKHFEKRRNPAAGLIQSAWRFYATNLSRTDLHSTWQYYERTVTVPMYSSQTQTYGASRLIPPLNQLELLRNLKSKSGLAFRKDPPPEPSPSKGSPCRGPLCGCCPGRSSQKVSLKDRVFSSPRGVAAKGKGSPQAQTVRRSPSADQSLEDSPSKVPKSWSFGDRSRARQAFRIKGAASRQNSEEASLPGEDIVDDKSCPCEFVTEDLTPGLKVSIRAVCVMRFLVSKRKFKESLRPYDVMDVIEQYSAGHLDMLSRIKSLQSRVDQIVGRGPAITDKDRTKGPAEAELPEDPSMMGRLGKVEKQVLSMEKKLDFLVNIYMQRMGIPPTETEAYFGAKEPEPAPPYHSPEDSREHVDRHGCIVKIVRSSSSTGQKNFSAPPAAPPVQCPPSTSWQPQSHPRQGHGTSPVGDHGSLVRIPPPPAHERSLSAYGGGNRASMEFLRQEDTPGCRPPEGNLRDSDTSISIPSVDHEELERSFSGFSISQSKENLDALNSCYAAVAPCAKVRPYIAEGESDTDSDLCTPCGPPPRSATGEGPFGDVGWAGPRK
T1 sequence (O43525 whole entry): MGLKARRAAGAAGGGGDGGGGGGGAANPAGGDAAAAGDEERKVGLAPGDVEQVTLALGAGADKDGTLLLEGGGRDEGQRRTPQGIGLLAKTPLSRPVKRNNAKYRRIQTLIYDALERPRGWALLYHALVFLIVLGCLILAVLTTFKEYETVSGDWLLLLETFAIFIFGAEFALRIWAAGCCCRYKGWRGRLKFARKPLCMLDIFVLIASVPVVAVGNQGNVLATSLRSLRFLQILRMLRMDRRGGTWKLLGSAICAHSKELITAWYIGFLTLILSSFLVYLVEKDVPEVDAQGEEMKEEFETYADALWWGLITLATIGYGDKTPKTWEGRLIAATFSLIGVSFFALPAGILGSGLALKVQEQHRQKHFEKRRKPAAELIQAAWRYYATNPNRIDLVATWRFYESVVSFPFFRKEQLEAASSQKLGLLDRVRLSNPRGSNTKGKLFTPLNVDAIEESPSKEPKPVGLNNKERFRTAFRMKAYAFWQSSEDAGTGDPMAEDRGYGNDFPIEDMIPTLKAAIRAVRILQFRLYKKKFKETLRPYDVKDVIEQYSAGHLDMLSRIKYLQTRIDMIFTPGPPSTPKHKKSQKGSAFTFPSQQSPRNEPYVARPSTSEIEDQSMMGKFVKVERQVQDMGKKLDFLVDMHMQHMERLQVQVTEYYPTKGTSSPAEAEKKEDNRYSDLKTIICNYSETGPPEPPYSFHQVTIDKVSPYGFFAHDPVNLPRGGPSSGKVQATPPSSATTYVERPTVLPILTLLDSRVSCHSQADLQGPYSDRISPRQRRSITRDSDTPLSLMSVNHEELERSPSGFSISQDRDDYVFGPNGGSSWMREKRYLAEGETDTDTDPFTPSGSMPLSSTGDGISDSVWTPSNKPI

As for `CCCCNC(=O)c1c(C)cc(N2CCOCC2)nc1SCC` [Example 80, N-Butyl-2-ethylsulfanyl-4-methyl-6-morpholin-4-yl-pyridine-3-carboxylic acid amide], the Emax worked out at 147% and the pEC50 was 5.66.
Turning to `CCCCCNC(=O)c1c(C)cc(N2CCOCC2)nc1SCC` [Example 81, 2-Ethylsulfanyl-4-methyl-6-morpholin-4-yl-N-pentyl-pyridine-3-carboxylic acid amide], the Emax amounted to 163% and the pEC50 is 6.18.
As to `CCSc1nc(N2CCOCC2)cc(C)c1C(=O)NCc1ccc(F)c(C(F)(F)F)c1` [Example 82, 2-Ethylsulfanyl-N-[[4-fluoro-3-(trifluoromethyl)-phenyl]-methyl]-4-methyl-6-morpholin-4-yl-pyridine-3-carboxylic acid amide], the Emax came to 117% and the pEC50 was 6.93.
For `CCSc1nc(N2CCOCC2)cc(C)c1C(=O)NCCOC(C)(C)C` [Example 83, N-(2-tert-Butoxy-ethyl)-2-ethylsulfanyl-4-methyl-6-morpholin-4-yl-pyridine-3-carboxylic acid amide], the Emax was 182% and the pEC50 was 5.55.
The like results for `CCSc1nc(N2CCOCC2)cc(C)c1C(=O)NCCCC(F)(F)F` [Example 84, 2-Ethylsulfanyl-4-methyl-6-morpholin-4-yl-N-(4,4,4-trifluoro-butyl)-pyridine-3-carboxylic acid amide] were, in that order, 203% and 6.45.
Taken in the same sequence, the figures for `CCSc1nc(N2CCOCC2)cc(C)c1C(=O)NCc1ccc(F)cc1-c1ccc(F)cc1` [Example 85, 2-Ethylsulfanyl-N-[[4-fluoro-2-(4-fluorophenyl)-phenyl]-methyl]-4-methyl-6-morpholin-4-yl-pyridine-3-carboxylic acid amide] were -61% and 6.97.
Regarding `COc1nc(N2CCOCC2)cc(C)c1C(=O)NCCCC(C)(C)C` [Example 86, N-(4,4-Dimethyl-pentyl)-2-methoxy-4-methyl-6-morpholin-4-yl-pyridine-3-carboxylic acid amide], the Emax came out at 236% and the pEC50 was 6.76.
Taken in the same sequence, the figures for `COc1nc(N2CCOCC2)cc(C)c1C(=O)NCc1ccc(F)c(F)c1` [Example 87, N-[(3,4-Difluoro-phenyl)-methyl]-2-methoxy-4-methyl-6-morpholin-4-yl-pyridine-3-carboxylic acid amide] were 138% and 6.51.
The like results for `COc1nc(N2CCOCC2)cc(C)c1C(=O)NCc1ccccc1-c1ccccc1` [Example 88, 2-Methoxy-4-methyl-6-morpholin-4-yl-N-[(2-phenyl-phenyl)-methyl]-pyridine-3-carboxylic acid amide] were, in that order, -83% and 6.60.
On to `CCOc1nc(N2CCOCC2)cc(C)c1C(=O)NCCCC(C)(C)C` [Example 89, N-(4,4-Dimethyl-pentyl)-2-ethoxy-4-methyl-6-morpholin-4-yl-pyridine-3-carboxylic acid amide], for which the Emax turned out to be 268% and the pEC50 was 6.86.
The like results for `CCOc1nc(N2CCOCC2)cc(C)c1C(=O)NCc1cc(F)cc(F)c1` [Example 90, N-[(3,5-Difluoro-phenyl)-methyl]-2-ethoxy-4-methyl-6-morpholin-4-yl-pyridine-3-carboxylic acid amide] were, in that order, 134% and 6.91.
As for `CCOc1nc(N2CCOCC2)cc(C)c1C(=O)NCc1ccc(F)c(F)c1` [Example 91, N-[(3,4-Difluoro-phenyl)-methyl]-2-ethoxy-4-methyl-6-morpholin-4-yl-pyridine-3-carboxylic acid amide], the Emax is 127% and the pEC50 is 6.93.
The like results for `CCOc1nc(N2CCOCC2)cc(C)c1C(=O)NCc1ccccc1-c1ccccc1` [Example 92, 2-Ethoxy-4-methyl-6-morpholin-4-yl-N-[(2-phenyl-phenyl)-methyl]-pyridine-3-carboxylic acid amide] were, in that order, -79% and 6.89.
The like results for `CCSc1nc(N2CCOCC2)cc(C)c1C(=O)NCc1cc(F)cc(C(F)(F)F)c1` [Example 93, 2-Ethylsulfanyl-N-[[3-fluoro-5-(trifluoromethyl)-phenyl]-methyl]-4-methyl-6-morpholin-4-yl-pyridine-3-carboxylic acid amide] were, in that order, 103% and 7.27.
Taken in the same sequence, the figures for `CCSc1nc(N2CCOCC2)cc(C)c1C(=O)NCc1cccc(C(F)(F)F)c1F` [Example 94, 2-Ethylsulfanyl-N-[[2-fluoro-3-(trifluoromethyl)-phenyl]-methyl]-4-methyl-6-morpholin-4-yl-pyridine-3-carboxylic acid amide] were 111% and 7.41.
For the molecule `CCSc1nc(N2CCOCC2)cc(C)c1C(=O)NCc1cc(C(F)(F)F)ccc1F` [Example 95, 2-Ethylsulfanyl-N-[[2-fluoro-5-(trifluoromethyl)-phenyl]-methyl]-4-methyl-6-morpholin-4-yl-pyridine-3-carboxylic acid amide], the Emax is 62% and the pEC50 is 7.25.
Taken in the same sequence, the figures for `CCSc1nc(N2CCCOCC2)cc(C)c1C(=O)NCc1cccc(F)c1` [Example 96, 2-Ethylsulfanyl-N-[(3-fluorophenyl)-methyl]-4-methyl-6-([1,4]oxazepan-4-yl)-pyridine-3-carboxylic acid amide] were 173% and 5.96.
Taken in the same sequence, the figures for `CCSc1nc(N2CCOCC2)cc(C)c1C(=O)NCc1ccc(OC(F)(F)F)cc1` [Example 97, 2-Ethylsulfanyl-4-methyl-6-morpholin-4-yl-N-[[4-(trifluoromethyloxy)-phenyl]methyl]-pyridine-3-carboxylic acid amide] were 136% and 7.17.
Taken in the same sequence, the figures for `COc1nc(N2CCCOCC2)cc(C)c1C(=O)NCc1cccc(F)c1` [Example 98, N-[(3-Fluorophenyl)-methyl]-2-methoxy-4-methyl-6-([1,4]oxazepan-4-yl)-pyridine-3-carboxylic acid amide] were 146% and 5.64.
For the molecule `CCOc1nc(N2CCCOCC2)cc(C)c1C(=O)NCc1cccc(F)c1` [Example 99, 2-Ethoxy-N-[(3-fluorophenyl)-methyl]-4-methyl-6-([1,4]oxazepan-4-yl)-pyridine-3-carboxylic acid amide], the Emax amounted to 134% and the pEC50 is 6.05.
Regarding `CCSc1nc(N2CCOCC2)cc(C)c1C(=O)NCc1cccc(F)c1F` [Example 100, N-[(2,3-Difluoro-phenyl)-methyl]-2-ethylsulfanyl-4-methyl-6-morpholin-4-yl-pyridine-3-carboxylic acid amide], the Emax was 98% and the pEC50 is 6.93.
Taken in the same sequence, the figures for `CCSc1nc(N2CCOCC2)cc(C)c1C(=O)NCc1cc(F)ccc1F` [Example 101, N-[(2,5-Difluoro-phenyl)-methyl]-2-ethylsulfanyl-4-methyl-6-morpholin-4-yl-pyridine-3-carboxylic acid amide] were 100% and 6.88.
Taken in the same sequence, the figures for `CCSc1nc(N2CCOCC2)cc(C)c1C(=O)NCc1cccc(C#N)c1` [Example 102, N-[(3-Cyano-phenyl)-methyl]-2-ethylsulfanyl-4-methyl-6-morpholin-4-yl-pyridine-3-carboxylic acid amide] were 138% and 5.91.
Taken in the same sequence, the figures for `CCSc1nc(N2CCOCC2)cc(C)c1C(=O)NCCOC(C)C` [Example 103, 2-Ethylsulfanyl-N-(2-isopropoxy-ethyl)-4-methyl-6-morpholin-4-yl-pyridine-3-carboxylic acid amide] were 142% and 5.34.
Turning to `CCSc1nc(N2CCOCC2)cc(C)c1C(=O)NCCC(C)(C)C` [Example 104, N-(3,3-Dimethyl-butyl)-2-ethylsulfanyl-4-methyl-6-morpholin-4-yl-pyridine-3-carboxylic acid amide], the Emax came to 100% and the pEC50 was 5.85.
The like results for `CCSc1nc(N2CCOCC2)cc(C)c1C(=O)NCCCC1CCCC1` [Example 105, N-(3-Cyclopentyl-propyl)-2-ethylsulfanyl-4-methyl-6-morpholin-4-yl-pyridine-3-carboxylic acid amide] were, in that order, 207% and 6.75.
The like results for `CCSc1nc(N2CCOCC2)cc(C)c1C(=O)NCCC1CCCCC1` [Example 106, N-(2-Cyclohexyl-ethyl)-2-ethylsulfanyl-4-methyl-6-morpholin-4-yl-pyridine-3-carboxylic acid amide] were, in that order, 160% and 6.76.
Taken in the same sequence, the figures for `CCSc1nc(N2CCOCC2)cc(C)c1C(=O)NCc1ccc(F)cc1F` [Example 107, N-[(2,4-Difluoro-phenyl)-methyl]-2-ethylsulfanyl-4-methyl-6-morpholin-4-yl-pyridine-3-carboxylic acid amide] were 90% and 7.06.
Consider `CCSc1nc(N2CCOCC2)cc(C)c1C(=O)NCCCc1ccc(F)cc1` [Example 108, 2-Ethylsulfanyl-N-[3-(4-fluorophenyl)-propyl]-4-methyl-6-morpholin-4-yl-pyridine-3-carboxylic acid amide], for which the Emax amounted to 203% and the pEC50 was 6.50.
Consider `CCSc1nc(N2CCOCC2)cc(C)c1C(=O)NCCCc1ccccn1` [Example 109, 2-Ethylsulfanyl-4-methyl-6-morpholin-4-yl-N-(3-pyridin-2-yl-propyl)-pyridine-3-carboxylic acid amide], for which the Emax is 53%.
Regarding `CCCCOc1nc(N2CCOCC2)cc(C)c1C(=O)NCc1cccc(F)c1` [Example 110, 2-Butoxy-N-[(3-fluorophenyl)-methyl]-4-methyl-6-morpholin-4-yl-pyridine-3-carboxylic acid amide], the Emax turned out to be 163% and the pEC50 is 7.15.
